Results on 46 compounds are retold here after ChEMBL document CHEMBL3826909, “Quinoxaline-based inhibitors of Ebola and Marburg VP40 egress” (Bioorg Med Chem Lett, 2016).

Series [1] has as its target T1, Matrix protein VP40 (Lake Victoria marburgvirus (strain Ravn-87) (MARV) (Marburg virus (strainKenya/Ravn/1987))) (UniProt Q1PDC8).
T1 sequence (whole entry): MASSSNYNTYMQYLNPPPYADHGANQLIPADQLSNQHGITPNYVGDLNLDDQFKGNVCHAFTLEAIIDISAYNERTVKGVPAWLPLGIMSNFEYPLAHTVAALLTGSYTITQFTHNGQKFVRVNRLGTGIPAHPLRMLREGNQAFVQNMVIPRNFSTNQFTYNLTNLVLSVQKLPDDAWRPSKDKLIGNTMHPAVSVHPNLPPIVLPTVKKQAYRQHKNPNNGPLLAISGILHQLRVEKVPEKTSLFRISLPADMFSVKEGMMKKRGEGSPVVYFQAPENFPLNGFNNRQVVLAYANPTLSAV
In words: Inhibition of Marburg virus VP40 PPxY L-domain motif expressed in HEK293T cells assessed as reduction in VLP budding at 1 uM relative to control. It is filed as cell-based. The note with it: HEK-293T.

In series [2] the target is T1, Matrix protein VP40 (Lake Victoria marburgvirus (strain Ravn-87) (MARV) (Marburg virus (strainKenya/Ravn/1987))). In words: Inhibition of Marburg virus VP40 PPxY L-domain motif expressed in HEK293T cells assessed as reduction in VLP budding at 0.1 uM relative to control. To be noted: HEK-293T. It is filed as cell-based.
Series [3] has the same target. As to the kind of experiment: Inhibition of Marburg virus VP40 PPxY L-domain motif expressed in HEK293T cells assessed as reduction in VLP budding at 0.3 uM relative to control. Type of series: cell-based. The note with it: HEK-293T.
Series [4] can be described thus: Half life in mouse liver microsomes. Type of series: ADME.
Series [5] has as its target Cytochrome P450 3A4 (Homo sapiens, UniProt P08684). In words: Inhibition of CYP3A4 (unknown origin) using midazolam as substrate. It is filed as ADME.
In series [6] the target is T1, Matrix protein VP40 (Lake Victoria marburgvirus (strain Ravn-87) (MARV) (Marburg virus (strainKenya/Ravn/1987))). As to the kind of experiment: Inhibition of Marburg virus VP40 PPxY L-domain motif expressed in HEK293T cells assessed as reduction in VLP budding at 0.03 uM relative to control. To be noted: HEK-293T. Type of series: cell-based.
Series [7] concerns Liver microsome. As to the kind of experiment: Intrinsic clearance in human liver microsomes assessed per mg of protein. Type of series: ADME.
Series [8] concerns Liver microsome. As to the kind of experiment: Half life in human liver microsomes. It is filed as ADME.
Series [9] deals with T1, Matrix protein VP40 (Lake Victoria marburgvirus (strain Ravn-87) (MARV) (Marburg virus (strainKenya/Ravn/1987))). As to the kind of experiment: Inhibition of Marburg virus VP40 PPxY L-domain motif expressed in HEK293T cells assessed as reduction in VLP budding at 30 nM after 24 hrs by Western blot analysis relative to control. Type of series: cell-based. To be noted: HEK-293T.

Series [10] in a line: Cytotoxicity against African green monkey Vero E6 cells assessed as cell viability at 0.1 uM after 24 hrs by MTT assay relative to control. To be noted: chlorocebus sabaeus, read-out: Activity. Type of series: cell-based.
Series [11] can be described thus: Cytotoxicity against human HEK293T cells assessed as cell viability at 0.01 uM after 24 hrs by MTT assay relative to control. To be noted: read-out: Activity. It is filed as cell-based, HEK-293T.
Series [12] in a line: Cytotoxicity against human HEK293T cells assessed as cell viability at 10 uM after 24 hrs by MTT assay relative to control. It is filed as cell-based, HEK-293T. To be noted: read-out: Activity.
A short description of series [13]: Cytotoxicity against African green monkey Vero E6 cells assessed as cell viability at 0.01 uM after 24 hrs by MTT assay relative to control. Type of series: cell-based. The note with it: chlorocebus sabaeus, read-out: Activity.
The nature of series [14]: Cytotoxicity against African green monkey Vero E6 cells assessed as cell viability at 1 uM after 24 hrs by MTT assay relative to control. Type of series: cell-based. To be noted: chlorocebus sabaeus, read-out: Activity.
Series [15] can be described thus: Cytotoxicity against human HEK293T cells assessed as cell viability at 1 uM after 24 hrs by MTT assay relative to control. The note with it: read-out: Activity. Type of series: cell-based, HEK-293T.
The nature of series [16]: Cytotoxicity against human HEK293T cells assessed as cell viability at 0.1 uM after 24 hrs by MTT assay relative to control. Type of series: cell-based, HEK-293T. To be noted: read-out: Activity.
Series [17] in a line: Cytotoxicity against African green monkey Vero E6 cells assessed as cell viability at 10 uM after 24 hrs by MTT assay relative to control. It is filed as cell-based. To be noted: chlorocebus sabaeus, read-out: Activity.
The target in series [18] is T1, Matrix protein VP40 (Lake Victoria marburgvirus (strain Ravn-87) (MARV) (Marburg virus (strainKenya/Ravn/1987))). In words: Inhibition of Marburg virus VP40 PPxY L-domain motif-Nedd4 interaction in HEK293T cells coexpressing NYFP-Nedd4 and CYFP-mVP40 at 0.1 uM by inverted confocal microscopy based bimolecular complementation assay. Type of series: cell-based. The note with it: HEK-293T.

Series [19] has the same target. In words: Inhibition of Marburg virus VP40 PPxY L-domain motif expressed in HEK293T cells assessed as reduction in VLP budding at 100 nM after 24 hrs by Western blot analysis. To be noted: HEK-293T. It is filed as cell-based.

SMILES strings stand for the structures. Active and inactive are the calls of the source. The calls are words filed in the database; no cut-off is given here.

Chain of Cytochrome P450 3A4 (P08684 whole entry): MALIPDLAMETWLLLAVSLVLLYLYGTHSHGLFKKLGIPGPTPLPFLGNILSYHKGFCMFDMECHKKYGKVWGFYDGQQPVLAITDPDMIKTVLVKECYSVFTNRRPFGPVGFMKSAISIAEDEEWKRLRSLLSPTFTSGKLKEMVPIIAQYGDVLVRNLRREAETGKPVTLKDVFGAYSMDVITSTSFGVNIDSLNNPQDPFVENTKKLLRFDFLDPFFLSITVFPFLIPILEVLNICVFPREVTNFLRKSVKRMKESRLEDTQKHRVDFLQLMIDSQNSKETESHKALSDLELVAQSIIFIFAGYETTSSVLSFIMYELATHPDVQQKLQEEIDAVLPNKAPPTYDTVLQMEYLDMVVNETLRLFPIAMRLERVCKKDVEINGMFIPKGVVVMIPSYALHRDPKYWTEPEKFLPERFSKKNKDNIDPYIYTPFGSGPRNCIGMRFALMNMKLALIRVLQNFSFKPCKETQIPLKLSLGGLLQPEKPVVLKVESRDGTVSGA

Turning to `Cc1ccccc1NC(=O)NC(=O)COc1nc2ccccc2nc1C`, the inhibition in [1] was found to be 100%; in series [2] it was 58%; in series [3], 100%.
For the compound `Cc1ccc(NC(=O)NC(=O)CSc2nc3ccccc3nc2C)nc1`, the inhibition in series [2] is 96%.
Consider `Cc1nc2ccccc2nc1SCC(=O)NC(=O)Nc1ccccn1`, for which the inhibition in series [1] worked out at 80%. In addition, in series [2], the inhibition result was “inactive”.
The corresponding values for `Cc1nc2ccccc2nc1SCC(=O)NC(=O)NCc1ccccc1` are 60% and 29%.
For `Cc1ccc(C)c(NC(=O)NC(=O)CSc2nc3ccccc3nc2C)c1`, the t1/2 in series [4] was 1.9 min; in [8] it was 77.2 min. In series [5], this compound gave a 50% inhibitory concentration (IC50) of more than 33 µM. Moreover, the inhibition in series [6] was determined as 68%; in [3], 100%. For the same compound, the Intrinsic clearance in series [7] came out at 0.71 mL/min.
As to `Cc1nc2ccccc2nc1SCC(=O)NC(=O)Nc1c(C)n[nH]c1C`, the inhibition in [1] worked out at 50%.
On the same count and under the same terms, to `Cc1nc2ccccc2nc1SCC(=O)N(C)C(=O)Nc1ccccc1F` belongs “inactive”; to `Cc1nc2ccccc2nc1SCC(=O)NC(=O)Nc1ccccc1C#N`, 87%; to `Cc1nc2ccccc2nc1SCC(=O)NC(=O)N1CCc2ccccc21`, “inactive”.
On the same count and under the same terms, to `Cc1nc2ccccc2nc1SCC(=O)NC(=O)Nc1cccc(F)c1` belongs 41%.
Regarding `Cc1ccc(NC(=O)NC(=O)CSc2nc3ccccc3nc2C)c(C)c1`, the inhibition in [6] turned out to be 62%; in series [3], 100%.
Consider `Cc1nc2ccccc2nc1SCC(=O)NC(=O)NCc1cccs1`, for which the inhibition in series [1] stood at 97%. Moreover, the inhibition result in series [2] is “inactive”.
Turning to `Cc1cc(C)cc(NC(=O)NC(=O)CSc2nc3ccccc3nc2C)c1`, the inhibition in series [6] amounted to 44%; in series [3] it was 100%.
The corresponding values for `Cc1cccc(C)c1NC(=O)NC(=O)CSc1nc2ccccc2nc1C` are “inactive” and 100%.
In the case of `O=C(CSc1cnc2ccccc2n1)NC(=O)Nc1ccccc1F`, in series [1], the inhibition result is “inactive”.
`Cc1nc2ccccc2nc1SCC(=O)NC(=O)Nc1cccnc1`: the inhibition in series [1] amounted to 78%; in series [2], 44%.
For `COc1cccc(NC(=O)NC(=O)CSc2nc3ccccc3nc2C)c1`, the inhibition in series [1] was 100%; in series [2], 60%; in series [3], 98%. In addition, the inhibition entry in [6] is “inactive”.
Regarding `Cc1ccncc1NC(=O)NC(=O)CSc1nc2ccccc2nc1C`, the inhibition in series [2] came to 85%.
For the compound `O=C(CSc1nc2ccccc2nc1C(F)(F)F)NC(=O)Nc1ccccc1Cl`, the t1/2 worked out at 49.9 min in series [4] and 71.7 min in series [8]. Further, the IC50 in series [5] was more than 33 µM. The inhibition entry in series [1], in [2] and in series [3] was “inactive” throughout. The compound also came in with an Intrinsic clearance in series [7] of 0.77 mL/min.
With `Cc1nc2ccccc2nc1SCC(=O)NC(=O)Nc1cccc(C#N)c1`, the inhibition in [1] worked out at 72%.
`Cc1ncccc1NC(=O)NC(=O)CSc1nc2ccccc2nc1C`: the inhibition in series [2] came to 41%.
As to `Cc1nc2ccccc2nc1SCC(=O)NC(=O)Nc1cccc(Cl)c1`, the inhibition in [3] is 49%.
Take `Cc1nc2ccccc2nc1SCC(=O)NC(=O)Nc1cc[nH]n1`: the inhibition entry in [1] was “inactive”.
In the case of `Cc1ccccc1NC(=O)NC(=O)CSc1nc2ccccc2nc1C`, the fold change (FC) in [9] came to 3. This compound had an IC50 in series [5] of more than 33 µM. In addition, the inhibition is 100% in series [1], 98% in [2], 83% in [6] and more than 90% in series [19]. Also, the results for the viability at 24 h, 0.1 µM in series [10] and in series [16] were 92.3% and 71.7%, respectively. For the same compound, the viability at 24 h, 0.01 µM in series [11] is 98.6%; in series [13] it was 96.8%. For the same compound, the viability at 24 h, 10 µM is 60.5% in series [12] and 61.7% in series [17]. The viability at 24 h, 1 µM in series [14] came out at 71.2%; in series [15], 62.8%. In addition, the inhibition entry in series [18] was “Active”. This compound had a t1/2 in series [8] of 46.6 min.
`Cc1ccc(NC(=O)NC(=O)CSc2nc3ccccc3nc2C)cn1`: the inhibition in series [2] amounted to 87%.
`CCc1ccc(C)nc1NC(=O)NC(=O)CSc1nc2ccccc2nc1C`: the inhibition in [6] turned out to be 48%.
In the case of `Cc1nc2ccccc2nc1SCC(=O)NC(=O)Nc1ccc(Cl)cc1`, the inhibition in series [2] was 82%.
Take `Cc1nc2ccccc2nc1SCC(=O)NC(=O)Nc1ccc(F)cc1`: in [1], the inhibition turned out to be 80%.
Take `CCc1nc2ccccc2nc1SCC(=O)NC(=O)Nc1cccc(F)c1C`: the t1/2 in [4] amounted to 54.8 min; in series [8], 31.3 min. In addition, the inhibition in series [1] came out at 67%. Also, the inhibition result in series [2] and in series [3] was “inactive” throughout.
Regarding `Cc1cccnc1NC(=O)NC(=O)CSc1nc2ccccc2nc1C`, in series [2], the inhibition was 45%.
Consider `COc1ccc(NC(=O)NC(=O)CSc2nc3ccccc3nc2C)cc1`, for which the inhibition is 100% in series [1], 99% in series [2] and 25% in series [6].
`Cc1ccc(F)cc1NC(=O)NC(=O)CSc1nc2ccccc2nc1C`: the inhibition in [2] amounted to 89%.
With `Cc1nc2ccccc2nc1SCC(=O)NC(=O)Nc1c(C)nn(C)c1C`, in series [1], the inhibition is 64%.
Consider `Cc1ccc(NC(=O)NC(=O)CSc2nc3ccccc3nc2C)cc1C`, for which the inhibition in series [6] was 29%; in series [3] it was 97%.
With `Cc1ccc(NC(=O)NC(=O)COc2nc3ccccc3nc2C)cc1`, the inhibition in series [2] came to 70%.
Take `Cc1nc2ccccc2nc1SCC(=O)NC(=O)Nc1ccccc1F`: the inhibition in [1] is 100%; in series [2], 98%; in series [3], 100%. Further, the inhibition entry in series [6] is “inactive”.
On to `Cc1nc2ccccc2nc1SCC(=O)NC(=O)N(C)c1ccccc1`, for which the inhibition entry in series [1] is “inactive”.
For the compound `O=C(CSc1nc2ccccc2nc1Cc1ccccc1)NC(=O)Nc1ccc(F)cc1`, the inhibition result in series [1] is “inactive”.
`CCc1nc2ccccc2nc1SCC(=O)NC(=O)Nc1ccccc1Cl`: the inhibition entry in series [2] was “inactive”.
As to `Cc1cccc(NC(=O)NC(=O)CSc2nc3ccccc3nc2C)c1`, the inhibition in [1] stood at 100%; in series [3] it was 71%. The inhibition result in [2] and in [6] was “inactive” throughout.
Take `Cc1nc2ccccc2nc1S(=O)(=O)CC(=O)NC(=O)Nc1ccc(F)cc1`: the inhibition result in series [1] is “inactive”.
As to `Cc1nc2ccccc2nc1SCC(=O)NC(=O)Nc1cc(Cl)ccc1Cl`, the inhibition in series [6] stood at 37%.
In the case of `Cc1cccc(NC(=O)NC(=O)CSc2nc3ccccc3nc2C)c1C`, the inhibition in series [6] is 41%; in series [3], 98%.
With `COc1ccccc1NC(=O)NC(=O)CSc1nc2ccccc2nc1C`, the inhibition in series [1] was 96%; in series [2] it was 60%; in series [3], 89%. The inhibition result in [6] was “inactive”.
Take `Cc1c(F)cccc1NC(=O)NC(=O)CSc1nc2ccccc2nc1C(F)(F)F`: the inhibition result in [2] was “inactive”.
Take `Cc1nc2ccccc2nc1SCC(=O)NC(=O)Nc1c(C)nn(-c2ccccc2)c1C`: the inhibition result in [1] is “inactive”.
